Values joined by “and” are separate entries in the source; they are usually repeats but may differ in a detail not shown here. Identical values can stand only once. Inconclusive results and toxic doses are left out. *1 amine or outer side, *2 acyl side, *3 side chain or, on linkers, in order; H or OH if unused. Where a SMILES comes first, the peptide text is derived from it. Bridges are numbered along the chain shown (N, C = ends). Roman numbers before positions name the chains, in order. [ ]: non-standard residue; d: D form. Actinocin(9to1) = Cc1c2oc3c(C)ccc(C(=O)[*:1])c3nc-2c(C(=O)[*:2])c(N)c1=O; aThr = C[C@H](O)[C@H](N)C(=O)O; NMeV = CN[C@H](C(=O)O)C(C)C; Sar = CNCC(=O)O
Test system: B6C3F1 mice, B16 melanoma ip, median survival T/C
Experiment: NCI In Vivo Anticancer Drug Screen. Data for tumor model B16 Melanoma (intraperitoneal) in B6C3F1 mice
Conditions: endpoint: median survival time, schedule: Q01DX009 (ip), higher = longer survival
In short: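 Mice bearing transplanted tumor were dosed with compound or vehicle, and survival was recorded. Activity is expressed as the treated-group measurement (T) divided by the vehicle control measurement (C).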

[1] = dose: 25.0 mg/kg/injection, vehicle: Klucel (hydroxypropylcellulose) (HPC)
[2] = dose: 50.0 mg/kg/injection, vehicle: Klucel (hydroxypropylcellulose) (HPC)
[3] = dose: 100.0 mg/kg/injection, vehicle: Klucel (hydroxypropylcellulose) (HPC)
[4] = dose: 200.0 mg/kg/injection, vehicle: Klucel (hydroxypropylcellulose) (HPC)
[5] = dose: 50.0 mg/kg/injection, vehicle: saline with Tween-80
[6] = dose: 100.0 mg/kg/injection, vehicle: saline with Tween-80
[7] = dose: 100.0 mg/kg/injection, vehicle: saline
[8] = dose: 6.25 mg/kg/injection, vehicle: saline with Tween-80
[9] = dose: 12.5 mg/kg/injection, vehicle: saline with Tween-80
[10] = dose: 25.0 mg/kg/injection, vehicle: saline with Tween-80
[11] = dose: 6.25 mg/kg/injection, vehicle: saline
[12] = dose: 25.0 mg/kg/injection, vehicle: saline
[13] = dose: 50.0 mg/kg/injection, vehicle: saline

`CCn1c(-c2ccc(OC(C)=O)cc2)c(C)c2cc(OC(C)=O)ccc21` was tested, and the T/C [1] was 104 % of control, the T/C [2] was 97 % of control and the T/C [3] was 97 % of control. For the same compound, the T/C [4] was 87 % of control and the T/C (dose: 400.0 mg/kg/injection, vehicle: Klucel (hydroxypropylcellulose) (HPC)) was 107 % of control.
`Cc1cc2nc(Cc3nc4cc(C)c(C)cc4[nH]3)[nH]c2cc1C` was tested, and the T/C [5] was 94 % of control, the T/C [6] was 93 % of control and the T/C (dose: 200.0 mg/kg/injection, vehicle: saline with Tween-80) was 88 % of control.
With `CCC(N)C(=O)NCC(=O)NCC(=O)O` (stereo not given) (HELM PEPTIDE1{[CCC(N)C(=O)[*:2]].G.G}$$$$V2.0) the T/C [7] was 105 % of control, the T/C (dose: 200.0 mg/kg/injection, vehicle: saline) was 108 % of control and the T/C (dose: 400.0 mg/kg/injection, vehicle: saline) was 109 % of control.
With `CC(=O)OCC12C3CC(=O)OC1C(OC(=O)C=C(C)C)C1C(C)=CC(=O)C(OC(C)=O)C1(C)C2C(=O)C(OC(C)=O)C3C` (stereo not given) the T/C (dose: 0.5 mg/kg/injection, vehicle: distilled water + Tween-80) was 93 % of control, the T/C (dose: 1.0 mg/kg/injection, vehicle: distilled water + Tween-80) was 101 % of control and the T/C (dose: 2.0 mg/kg/injection, vehicle: distilled water + Tween-80) was 118 % of control. For the same compound, the T/C (dose: 4.0 mg/kg/injection, vehicle: distilled water + Tween-80) was 93 % of control and the T/C (dose: 8.0 mg/kg/injection, vehicle: distilled water + Tween-80) was 98 % of control.
In the case of `Cc1c2oc3c(C)ccc(C(=O)N[C@@H]4C(=O)N[C@H](C(C)C)C(=O)N5CCC[C@H]5C(=O)N(C)CC(=O)N(C)[C@@H](C(C)C)C(=O)O[C@H]4C)c3nc-2c(C(=O)N[C@@H]2C(=O)N[C@H](C(C)C)C(=O)N3CCC[C@H]3C(=O)N(C)CC(=O)N(C)[C@@H](C(C)C)C(=O)O[C@H]2C)c(N)c1=O` (I: [aThr][dV]P[Sar][NMeV] / II: [aThr][dV]P[Sar][NMeV]; ester I:1-I:C, II:1-II:C; linker I:N-II:N via Actinocin(9to1)), the T/C (dose: 6.25 micrograms/kg/injection, vehicle: saline + alcohol) is reported as 118 % of control, the T/C (dose: 6.25 micrograms/kg/injection, vehicle: water) is reported as 117 % of control and the T/C (dose: 6.3 micrograms/kg/injection, vehicle: saline + alcohol) is reported as 108 % of control and 110 % of control. The T/C (dose: 12.5 micrograms/kg/injection, vehicle: saline + alcohol) was 115 % of control, the T/C (dose: 25.0 micrograms/kg/injection, vehicle: water) was 151 % of control and the T/C (dose: 50.0 micrograms/kg/injection, vehicle: saline + alcohol) was 172 % of control. The T/C (dose: 50.0 micrograms/kg/injection, vehicle: water) was 171 % of control, the T/C (dose: 100.0 micrograms/kg/injection, vehicle: saline + alcohol) was 160 % of control and 166 % of control and the T/C (dose: 100.0 micrograms/kg/injection, vehicle: water) was 181 % of control. The T/C (dose: 200.0 micrograms/kg/injection, vehicle: saline + alcohol) was 159 % of control and 174 % of control.
With `CO[C@H](C(=O)[C@@H](O)[C@@H](C)O)[C@@H]1Cc2cc3cc(OC4CC(OC5CC(O)C(O)C(C)O5)C(O)C(C)O4)c(C)c(O)c3c(O)c2C(=O)[C@H]1OC1CC(OC2CC(OC3CC(C)(O)C(O)C(C)O3)C(O)C(C)O2)C(O)C(C)O1` (stereo not given in full) the T/C (dose: 0.06 mg/kg/injection, vehicle: saline) was 111 % of control, the T/C (dose: 0.12 mg/kg/injection, vehicle: saline) was 101 % of control and the T/C (dose: 0.25 mg/kg/injection, vehicle: saline) was 101 % of control. The T/C (dose: 0.5 mg/kg/injection, vehicle: saline) was 117 % of control, the T/C (dose: 1.0 mg/kg/injection, vehicle: saline) was 105 % of control and the T/C (dose: 2.0 mg/kg/injection, vehicle: saline) was 113 % of control.
In the case of `N#Cc1nc(C#N)c(Sc2ccccc2)c(Sc2ccccc2)c1Sc1ccccc1`, the T/C (dose: 3.12 mg/kg/injection, vehicle: saline with Tween-80) is reported as 104 % of control, the T/C (dose: 3.13 mg/kg/injection, vehicle: saline with Tween-80) is reported as 101 % of control and the T/C [8] is reported as 98 % of control and 102 % of control. The T/C [9] was 93 % of control and 94 % of control, the T/C [10] was 101 % of control and the T/C [5] was 97 % of control and 98 % of control. For the same compound, the T/C [6] was 101 % of control and 104 % of control.
In the case of `COc1ccc2c(NCCCCCCNc3c4ccccc4nc4cc(OC)ccc34)c3ccccc3nc2c1`, the T/C (dose: 39.0 micrograms/kg/injection, vehicle: lactic acid) is reported as 108 % of control and the T/C (dose: 78.0 micrograms/kg/injection, vehicle: lactic acid) is reported as 90 % of control.
With `O=C1CC2(C(=O)N1CN1CCCCC1)c1ccccc1-c1ccccc12` the T/C (dose: 12.5 mg/kg/injection, vehicle: Klucel (hydroxypropylcellulose) (HPC)) was 91 % of control, the T/C [1] was 95 % of control and the T/C [2] was 95 % of control. The T/C [3] was 110 % of control and the T/C [4] was 92 % of control.
With `CC(C)CC(NC(=O)OCC1c2ccccc2-c2ccccc21)C(=O)O` (stereo not given) the T/C [1] was 102 % of control and the T/C [3] was 122 % of control and 101 % of control.
`CN(C)c1ccc2c(NCCCCCCNc3ccnc4cc(N(C)C)ccc34)ccnc2c1` was tested, and the T/C (dose: 1.56 mg/kg/injection, vehicle: distilled water + alcohol) was 94 % of control, the T/C (dose: 3.12 mg/kg/injection, vehicle: distilled water + alcohol) was 92 % of control and the T/C (dose: 6.25 mg/kg/injection, vehicle: distilled water + alcohol) was 106 % of control. For the same compound, the T/C (dose: 12.5 mg/kg/injection, vehicle: distilled water + alcohol) was 116 % of control and the T/C (dose: 25.0 mg/kg/injection, vehicle: distilled water + alcohol) was 112 % of control.
With `CCN(CC)c1ccc2cc3ccc(=[N+](CC)CC)cc-3oc2c1` the T/C (dose: 2.5 mg/kg/injection, vehicle: Klucel (hydroxypropylcellulose) (HPC)) was 104 % of control, the T/C (dose: 5.0 mg/kg/injection, vehicle: Klucel (hydroxypropylcellulose) (HPC)) was 96 % of control and the T/C (dose: 10.0 mg/kg/injection, vehicle: Klucel (hydroxypropylcellulose) (HPC)) was 88 % of control.
For `CC1(C)COCN1COC1CCCCC1`, the T/C [11] was 99 % of control, the T/C (dose: 12.5 mg/kg/injection, vehicle: saline) was 114 % of control and the T/C [10] was 102 % of control. The T/C [12] was 99 % of control, the T/C [5] was 112 % of control and the T/C [13] was 114 % of control. For the same compound, the T/C [6] was 115 % of control and the T/C [7] was 106 % of control.
With `COC(=O)Nc1ccc(Cc2ccc(NC(=O)OC)cc2)cc1` the T/C [8] was 98 % of control, the T/C [9] was 99 % of control and the T/C [10] was 109 % of control and 98 % of control. The T/C [5] was 109 % of control and the T/C [6] was 150 % of control.
For `CCN(CC)CCOCCO`, the T/C (dose: 12.0 mg/kg/injection, vehicle: saline) was 105 % of control, the T/C [12] was 116 % of control and the T/C [13] was 98 % of control. The T/C [7] was 90 % of control.
In the case of `O=c1c(O)c(O)c1=O.[NH2-].[NH2-].[NH2-].[NH2-].[NH2-].[Ru+5]`, the T/C (dose: 3.12 mg/kg/injection, vehicle: saline) is reported as 110 % of control, the T/C (dose: 3.75 mg/kg/injection, vehicle: saline) is reported as 104 % of control and the T/C [11] is reported as 120 % of control. The T/C (dose: 10.42 mg/kg/injection, vehicle: saline) was 122 % of control and the T/C [12] was 87 % of control.
In the case of `COc1cc2c(c3c1c(=O)c1cccc(F)c1n3C)C=CC(C)(C)O2`, the T/C [1] is reported as 109 % of control, the T/C [2] is reported as 119 % of control and the T/C [3] is reported as 88 % of control.
For `CC(C)(C)N(C(=O)OCC1c2ccccc2-c2ccccc21)C(CO)C(=O)O` (stereo not given), the T/C [3] was 96 % of control.
In the case of `O=[N+]([O-])c1ccc2c3c(ccc([N+](=O)[O-])c13)CC2`, the T/C [1] is reported as 89 % of control, the T/C [2] is reported as 89 % of control and the T/C [3] is reported as 91 % of control and 95 % of control.

Reference: PubChem BioAssay AID200 (DTP/NCI, 2004)
